The supplement of paper PMC5662764
± gives the standard deviation of the averaged measurements.

Tests used:
Experiment in all cases: normalised growth rate inhibition (GR value) relative to DMSO control (GR (1 = untreated growth, 0 = cytostasis, <0 = cytotoxic)); higher = less growth inhibition
Conditions in all cases: 72 h
BT20 = test system: BT20
Experimental: (§1)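 Breast cancer cell lines (BT-20, Hs 578T, MCF 10A, MCF7, MDA-MB-231, SK-BR-3) were plated in 384-well plates and treated 24 h later with drugs at six concentrations (0.04-10 µM). Viable cells were counted by Hoechst/dead-cell-stain imaging at 0 and 72 h. Counts were normalised to DMSO controls on the same plate to give the relative cell count and the growth-rate inhibition (GR) value; technical plate triplicates were averaged for each biological replicate.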

HS578T = test system: HS578T
Experimental: as §1

MCF10A = test system: MCF10A
Experimental: as §1

MCF7 = test system: MCF7
Experimental: as §1

MDAMB231 = test system: MDAMB231
Experimental: as §1

SKBR3 = test system: SKBR3
Experimental: as §1

| SMILES | normalised growth rate inhibition (BT20; 0.04 µM) | normalised growth rate inhibition (BT20; 0.12 µM) | normalised growth rate inhibition (BT20; 0.37 µM) | normalised growth rate inhibition (BT20; 1.11 µM) | normalised growth rate inhibition (BT20; 3.33 µM) | normalised growth rate inhibition (BT20; 10 µM) | normalised growth rate inhibition (HS578T; 0.04 µM) | normalised growth rate inhibition (HS578T; 0.12 µM) | normalised growth rate inhibition (HS578T; 0.37 µM) | normalised growth rate inhibition (HS578T; 1.11 µM) | normalised growth rate inhibition (HS578T; 3.33 µM) | normalised growth rate inhibition (HS578T; 10 µM) | normalised growth rate inhibition (MCF10A; 0.04 µM) | normalised growth rate inhibition (MCF10A; 0.12 µM) | normalised growth rate inhibition (MCF10A; 0.37 µM) | normalised growth rate inhibition (MCF10A; 1.11 µM) | normalised growth rate inhibition (MCF10A; 3.33 µM) | normalised growth rate inhibition (MCF10A; 10 µM) | normalised growth rate inhibition (MCF7; 0.04 µM) | normalised growth rate inhibition (MCF7; 0.12 µM) | normalised growth rate inhibition (MCF7; 0.37 µM) | normalised growth rate inhibition (MCF7; 1.11 µM) | normalised growth rate inhibition (MCF7; 3.33 µM) | normalised growth rate inhibition (MCF7; 10 µM) | normalised growth rate inhibition (MDAMB231; 0.04 µM) | normalised growth rate inhibition (MDAMB231; 0.12 µM) | normalised growth rate inhibition (MDAMB231; 0.37 µM) | normalised growth rate inhibition (MDAMB231; 1.11 µM) | normalised growth rate inhibition (MDAMB231; 3.33 µM) | normalised growth rate inhibition (MDAMB231; 10 µM) | normalised growth rate inhibition (SKBR3; 0.04 µM) | normalised growth rate inhibition (SKBR3; 0.12 µM) | normalised growth rate inhibition (SKBR3; 0.37 µM) | normalised growth rate inhibition (SKBR3; 1.11 µM) | normalised growth rate inhibition (SKBR3; 3.33 µM) | normalised growth rate inhibition (SKBR3; 10 µM) |
| --- | --- | --- | --- | --- | --- | --- | --- | --- | --- | --- | --- | --- | --- | --- | --- | --- | --- | --- | --- | --- | --- | --- | --- | --- | --- | --- | --- | --- | --- | --- | --- | --- | --- | --- | --- | --- |
| COc1cc(C(=O)NC2CCN(C)CC2)ccc1Nc1ncc2c(n1)N(C1CCCC1)CCC(=O)N2C(C)C | 0.783 ± 0.068 | 0.948 ± 0.1 | 0.933 ± 0.14 | 0.936 ± 0.11 | 0.888 ± 0.1 | 0.734 ± 0.15 | 0.972 ± 0.024 | 0.964 ± 0.045 | 0.93 ± 0.03 | 0.917 ± 0.0095 | 0.8447 ± 0.0079 | 0.275 ± 0.079 | 0.975 ± 0.04 | 0.979 ± 0.045 | 0.984 ± 0.019 | 0.972 ± 0.024 | 0.948 ± 0.029 | 0.758 ± 0.086 | 0.764 ± 0.077 | 0.84 ± 0.053 | 0.858 ± 0.07 | 0.807 ± 0.02 | 0.758 ± 0.065 | 0.298 ± 0.024 | 0.765 ± 0.047 | 0.884 ± 0.069 | 0.86 ± 0.068 | 0.834 ± 0.077 | 0.767 ± 0.093 | 0.308 ± 0.08 | 0.601 ± 0.093 | 0.755 ± 0.053 | 0.775 ± 0.079 | 0.758 ± 0.088 | 0.787 ± 0.082 | 0.511 ± 0.17 |
| COc1cc2ncn(-c3cc(OCc4ccccc4C(F)(F)F)c(C(N)=O)s3)c2cc1OC | 0.853 ± 0.061 | 0.614 ± 0.18 | 0.331 ± 0.27 | -0.00404 ± 0.12 | -0.126 ± 0.06 | -0.0325 ± 0.31 | 0.959 ± 0.075 | 0.603 ± 0.19 | 0.0393 ± 0.039 | -0.137 ± 0.087 | -0.145 ± 0.12 | 0.00336 ± 0.2 | 0.96 ± 0.027 | 0.817 ± 0.083 | 0.412 ± 0.13 | 0.0464 ± 0.034 | -0.0733 ± 0.13 | -0.101 ± 0.17 | 0.68 ± 0.15 | 0.279 ± 0.18 | 0.14 ± 0.023 | 0.072 ± 0.019 | 0.0415 ± 0.007 | 0.167 ± 0.099 | 0.892 ± 0.064 | 0.736 ± 0.11 | 0.404 ± 0.12 | 0.0556 ± 0.12 | -0.0347 ± 0.12 | 0.0238 ± 0.14 | 0.847 ± 0.018 | 0.463 ± 0.19 | -0.0831 ± 0.12 | -0.157 ± 0.18 | -0.213 ± 0.17 | 0.0233 ± 0.42 |
| COc1cc2ncnc(-n3nc(-c4ccccn4)nc3N)c2cc1OC | 1.07 ± 0.0067 | 1.03 ± 0.032 | 1.01 ± 0.036 | 1.02 ± 0.014 | 0.954 ± 0.047 | 0.588 ± 0.22 | 1.035 ± 0.0072 | 1.04 ± 0.021 | 1.05 ± 0.033 | 1.02 ± 0.053 | 0.978 ± 0.083 | 0.686 ± 0.15 | 1.018 ± 0.01 | 1.01 ± 0.014 | 1.008 ± 0.0099 | 0.994 ± 0.011 | 0.972 ± 0.018 | 0.729 ± 0.26 | 1.09 ± 0.051 | 1.04 ± 0.045 | 1.05 ± 0.083 | 1.01 ± 0.1 | 0.918 ± 0.14 | 0.499 ± 0.41 | 1.05 ± 0.057 | 1.02 ± 0.058 | 0.785 ± 0.4 | 0.938 ± 0.041 | 0.903 ± 0.1 | 0.534 ± 0.25 | 1.16 ± 0.032 | 1.05 ± 0.033 | 1.04 ± 0.069 | 0.95 ± 0.13 | 0.871 ± 0.17 | 0.479 ± 0.44 |
| C[C@@H](N)c1ccc(C(=O)Nc2ccnc3[nH]ccc23)cc1 | 0.994 ± 0.068 | 1.01 ± 0.098 | 0.962 ± 0.084 | 0.895 ± 0.073 | 0.802 ± 0.09 | 0.296 ± 0.17 | 0.884 ± 0.015 | 0.821 ± 0.059 | 0.802 ± 0.03 | 0.757 ± 0.041 | 0.626 ± 0.054 | 0.0283 ± 0.12 | 0.9685 ± 0.0076 | 0.877 ± 0.069 | 0.888 ± 0.038 | 0.864 ± 0.047 | 0.805 ± 0.089 | 0.336 ± 0.18 | 1.06 ± 0.049 | 1.04 ± 0.043 | 1 ± 0.039 | 0.905 ± 0.11 | 0.63 ± 0.19 | -0.243 ± 0.13 | 0.873 ± 0.12 | 0.849 ± 0.1 | 0.777 ± 0.11 | 0.703 ± 0.086 | 0.586 ± 0.062 | -0.303 ± 0.14 | 0.839 ± 0.19 | 0.836 ± 0.19 | 0.782 ± 0.14 | 0.667 ± 0.18 | 0.522 ± 0.18 | -0.122 ± 0.18 |
| Cc1cnc(-c2cnc(NCCNc3ccc(C#N)cn3)nc2-c2ccc(Cl)cc2Cl)[nH]1 | 0.915 ± 0.11 | 0.932 ± 0.082 | 0.959 ± 0.087 | 1 ± 0.093 | 1.01 ± 0.069 | 0.875 ± 0.16 | 0.97 ± 0.014 | 0.9636 ± 0.0048 | 0.962 ± 0.018 | 0.911 ± 0.059 | 0.907 ± 0.018 | 0.525 ± 0.14 | 1.01 ± 0.032 | 1.01 ± 0.041 | 0.997 ± 0.07 | 0.952 ± 0.12 | 0.9 ± 0.12 | 0.799 ± 0.13 | 0.844 ± 0.082 | 0.786 ± 0.085 | 0.776 ± 0.095 | 0.586 ± 0.16 | 0.585 ± 0.1 | 0.222 ± 0.061 | 0.895 ± 0.041 | 0.823 ± 0.039 | 0.831 ± 0.021 | 0.827 ± 0.061 | 0.831 ± 0.024 | 0.762 ± 0.035 | 0.731 ± 0.12 | 0.725 ± 0.17 | 0.786 ± 0.16 | 0.749 ± 0.17 | 0.753 ± 0.17 | 0.465 ± 0.2 |
| OCCCNc1cc(-c2ccnc(Nc3cccc(Cl)c3)n2)ccn1 | 0.32 ± 0.6 | -0.203 ± 0.17 | -0.291 ± 0.18 | -0.323 ± 0.18 | -0.37 ± 0.19 | -0.43 ± 0.17 | 0.343 ± 0.56 | -0.0634 ± 0.17 | -0.144 ± 0.099 | -0.162 ± 0.09 | -0.188 ± 0.14 | -0.228 ± 0.13 | 0.263 ± 0.55 | -0.205 ± 0.21 | -0.228 ± 0.22 | -0.24 ± 0.21 | -0.242 ± 0.21 | -0.231 ± 0.16 | 0.312 ± 0.68 | -0.264 ± 0.073 | -0.315 ± 0.074 | -0.332 ± 0.09 | -0.363 ± 0.09 | -0.429 ± 0.097 | 0.257 ± 0.49 | -0.139 ± 0.17 | -0.226 ± 0.15 | -0.295 ± 0.15 | -0.318 ± 0.15 | -0.319 ± 0.13 | 0.398 ± 0.76 | 0.11 ± 0.49 | -0.227 ± 0.18 | -0.278 ± 0.16 | -0.344 ± 0.15 | -0.414 ± 0.18 |
| O=c1[nH]c2ccccc2n1C1CCN(Cc2ccc(-c3[nH]c4cc5ncnc5cc4nc3-c3ccccc3)cc2)CC1 [AKT-inhibitor-1-2] | 0.831 ± 0.027 | 0.851 ± 0.026 | 0.921 ± 0.023 | 0.849 ± 0.015 | 0.872 ± 0.026 | 0.291 ± 0.052 | 0.9753 ± 0.0043 | 0.9556 ± 0.0094 | 0.933 ± 0.0086 | 0.857 ± 0.029 | 0.875 ± 0.024 | 0.388 ± 0.099 | 0.994 ± 0.01 | 0.979 ± 0.01 | 0.9721 ± 0.0092 | 0.922 ± 0.048 | 0.945 ± 0.047 | 0.605 ± 0.15 | 0.749 ± 0.023 | 0.741 ± 0.034 | 0.701 ± 0.1 | 0.471 ± 0.066 | 0.436 ± 0.11 | -0.0151 ± 0.17 | 0.874 ± 0.091 | 0.889 ± 0.086 | 0.918 ± 0.046 | 0.835 ± 0.083 | 0.888 ± 0.023 | 0.56 ± 0.11 | 0.675 ± 0.14 | 0.759 ± 0.051 | 0.766 ± 0.021 | 0.587 ± 0.091 | 0.599 ± 0.027 | 0.299 ± 0.043 |
| O=C(NC1CCNCC1)c1n[nH]cc1NC(=O)c1c(Cl)cccc1Cl [AT-7519] | 0.891 ± 0.088 | 0.695 ± 0.31 | 0.207 ± 0.43 | -0.207 ± 0.12 | -0.361 ± 0.21 | -0.422 ± 0.18 | 0.899 ± 0.1 | 0.564 ± 0.38 | -0.102 ± 0.11 | -0.14 ± 0.099 | -0.242 ± 0.12 | -0.295 ± 0.11 | 0.969 ± 0.028 | 0.88 ± 0.071 | 0.222 ± 0.39 | -0.156 ± 0.23 | -0.256 ± 0.28 | -0.296 ± 0.25 | 0.69 ± 0.41 | 0.0423 ± 0.33 | -0.267 ± 0.063 | -0.302 ± 0.099 | -0.33 ± 0.14 | -0.404 ± 0.13 | 0.732 ± 0.19 | 0.291 ± 0.38 | -0.171 ± 0.22 | -0.291 ± 0.22 | -0.355 ± 0.2 | -0.388 ± 0.19 | 0.717 ± 0.24 | 0.14 ± 0.11 | -0.104 ± 0.074 | -0.284 ± 0.15 | -0.41 ± 0.18 | -0.523 ± 0.16 |
